Source: US8586572B2, “3-phenyl-azetidine derivatives useful as modulators of cortical catecholaminergic neurotransmission” (Integrative Research Laboratories Sweden AB, priority 2008, dated 2013)
Where a name gives a salt, the structure may show the parent alone.

Experiments:
[1] = test system: extracellular NA, DA and 5-HT in striatum; experiment: Microdialysis in awake and freely moving rats, dorsal striatum; assay type: in vivo, rat; conditions: 50 μmol/kg s.c., awake freely moving rats; for DA Stri ± SEM, maximum effect compared to baseline values: dopamine in striatum dialysate; for 5-HT Stri ± SEM, maximum effect compared to baseline values: serotonin in striatum dialysate
Description: (§1) Male Sprague-Dawley rats weighing 220-320 g were used throughout the experiments. Before the experiment the animals were group housed, five animals in each cage, with free access to water and food. The animals were housed at least one week after arrival prior to surgery and use in the experiments. Each rat was used only once for microdialysis.
(§2) We use a modified version (Waters et al., 1994) of the I-shaped probe (Santiago and Westerink, 1990). The dialysis membrane we use is the AN69 poly-acrylonitrile/sodiummethalylsulfonate copolymer (HOSPAL; o.d./i.d. 310/220 μm: Gambro, Lund, Sweden). In the dorsal striatum we use probes with an exposed length of 3 mm of dialysis membrane and in the prefrontal cortex the corresponding length is 2.5 mm. The rats were operated under isoflurane inhalationanesthesia while mounted into a Kopf stereotaxic instrument. Co-ordinates were calculated relative to bregma; dorsal striatum AP +1, ML ±2.6, DV −6.3; Pf cortex, AP +3.2, 8° ML ±1.2, DV −4.0 according to (Paxinos & Watson, 1986). The dialysis probe was positioned in a burr hole under stereotaxic guidance and cemented with phosphatine dental cement.
(§3) The rats were housed individually in cages for 48 h before the dialysis experiments, allowing them to recover from surgery and minimizing the risk of drug interactions with the anaesthetic during the following experiments. During this period the rats had free access to food and water. On the day of experiment the rats were connected to a micro perfusion pump via a swiwel and were replaced in the cage where they could move freely within its confinements. The perfusion medium was a Ringer's solution containing in mmol/l: NaCl; 140, CaCl2; 1.2, KCl; 3.0, MgCl2; 1.0 and ascorbic acid; 0.04 according to (Moghaddam & Bunney, 1989). The pump was set to a perfusion speed of 2 μl/min and 40 μl samples were collected every 20 min. Each sample was analyzed at two HPLC systems. On an autoinjector (CMA 200) with a 10-port valve (Valco C10WE), holding two sample loops in series (4 μl and 20 μl), each brain dialysate sample is loaded in both loops simultaneously. At injection the 20 μl sample is introduced into a column switching system (reverse-phase combined with reverse-phase ion-pairing) for dopamine (DA), noradrenaline (NA), normetanephrine (NM), 3-methoxytyramine (3-MT) and serotonin (5-hydroxytryptamine, 5-HT) determination, while the 4 μl sample is introduced on a reverse-phase column for the chromatography of the acidic monoamine metabolites 3,4-di-hydroxyphenylacetic acid (DOPAC), homovanillic acid (HVA) and 5-hydroxyindoleacetic acid (5-HIAA). The currents generated by the two EC detectors are converted to digital data and evaluated using Chromeleon software (Dionex) on a PC. The method sample turn over time was 4.5 min and two parallel experiments are normally analyzed simultaneously on the system.
(§4) After the experiment the rats were uncoupled from the perfusion pump and decapitated. Their brains were rapidly taken out and fixed in Neo-fix solution (Kebolab, Sweden) for subsequent inspection of probe localisation. The Animal Ethics Committee in Göteborg, Sweden approved the procedures applied in these experiments.
(§5) The microdialysis was performed in awake and freely moving rats.
(§6) Dopamine=DA; Norepinephrine=NA; Serotonin=5-HT; Stri=Striatum; PFC=Prefrontal Cortex.

[2] = test system: extracellular NA, DA and 5-HT in prefrontal cortex; experiment: Microdialysis in awake and freely moving rats, prefrontal cortex; assay type: in vivo, rat; conditions: 50 μmol/kg s.c., awake freely moving rats; for DA PFC ± SEM, maximum effect compared to baseline values: dopamine in prefrontal cortex dialysate; for NA PFC ± SEM, maximum effect compared to baseline values: norepinephrine in prefrontal cortex dialysate; for 5-HT PFC ± SEM, maximum effect compared to baseline values: serotonin in prefrontal cortex dialysate
Description: as §1, §2, §3, §4, §5, §6

Row | SMILES | DA Stri ± SEM, maximum effect compared to baseline values [1] | 5-HT Stri ± SEM, maximum effect compared to baseline values [1] | DA PFC ± SEM, maximum effect compared to baseline values [2] | NA PFC ± SEM, maximum effect compared to baseline values [2] | 5-HT PFC ± SEM, maximum effect compared to baseline values [2] | melting point [°C] | also measured
1 | CCN1CC(O)(c2cccc(F)c2F)C1 [Example 1, 3-(2,3-difluorophenyl)-1-ethylazetidin-3-ol] | 219 ± 113% of control | 113 ± 13% of control | 211 ± 61% of control | 438 ± 91% of control | 130 ± 11% of control | – | NA Stri ± SEM, maximum effect compared to baseline values ([1]; norepinephrine in striatum dialysate): 261 ± 151% of control
2 | CCN1CC(O)(c2ccc(F)c(F)c2)C1 (as salt: fumaric acid salt) [Example 2, 3-(3,4-difluorophenyl)-1-ethylazetidin-3-ol] | – | – | – | – | – | 177 to 179 | –
3 | COC1(c2cccc(F)c2F)CNC1 (as salt: oxalic acid salt) [Example 8, 3-(2,3-difluorophenyl)-3-methoxyazetidine] | – | – | – | – | – | 141 to 142 | –
4 | CCN1CC(OC)(c2cccc(F)c2F)C1 (as salt: oxalic acid salt) [Example 9, 3-(2,3-difluorophenyl)-1-ethyl-3-methoxyazetidine] | – | – | – | – | – | 147 to 148 | –
5 | CCN1CC(O)(c2cc(F)cc(F)c2)C1 (as salt: fumaric acid salt) | – | – | – | – | – | 140 to 141 | –
6 | CCN1CC(O)(c2cccc(F)c2F)C1 (as salt: fumaric acid salt) [Example 1, 3-(2,3-difluorophenyl)-1-ethylazetidin-3-ol] | – | – | – | – | – | 148 to 150 | –
7 | CCN1CC(O)(c2ccc(F)c(F)c2)C1 [Example 2, 3-(3,4-difluorophenyl)-1-ethylazetidin-3-ol] | 112% of control | 162% of control | 309 ± 62% of control | 397 ± 59% of control | 182 ± 33% of control | – | –
8 | CCN1CC(O)(c2cccc(Cl)c2F)C1 (as salt: fumaric acid salt) | – | – | – | – | – | 172 to 173 | –
9 | CCN1CC(O)(c2cc(F)cc(Cl)c2)C1 (as salt: fumaric acid salt) | – | – | – | – | – | 166 to 168 | –
10 | CCN1CC(OC)(c2cccc(F)c2F)C1 [Example 9, 3-(2,3-difluorophenyl)-1-ethyl-3-methoxyazetidine] | 122 ± 12% of control | 134 ± 22% of control | 215 ± 54% of control | 298 ± 79% of control | 169 ± 65% of control | – | –
